Our source for the inhibition in vivo values is patent US8124780B2, “Benzimidazole compound” (priority 2005, dated 2012).

Counter-ions that a name gives are not always drawn. Like-named read-outs stand apart in the source and are kept apart here.

The assay concerns gastric acid secretion. Kind of assay: animal or person. It is filed as in vivo, dog. The following applies: Canis lupus familiaris.
Where [1] appears, read: iv, 24 h, read-out: Persistency of inhibitory effect against gastric acid secretion (%).
[2] abbreviates: iv, read-out: Inhibitory effect against gastric acid secretion (%).

Regarding `Cc1ccc2[nH]c([S+]([O-])Cc3nccc(OCC4COC(C)(C)OC4)c3C)nc2c1` (stereo not shown) [Example 55, 2-(((4-((2,2-dimethyl-1,3-dioxan-5-yl)methoxy)-3-methylpyridin-2-yl)methyl)sulfinyl)-5-methyl-1H-benzimidazole sodium salt], the inhibition in vivo at 0.8 mg/kg came to 75% under setting [1] and 83% under setting [2].

For the compound `Cc1cnc(C[S+]([O-])c2nc3cc(F)ccc3[nH]2)c(C)c1OCC1COC(C)(C)OC1` (stereo not shown) [Example 56, 2-(((4-((2,2-dimethyl-1,3-dioxan-5-yl)methoxy)-3,5-dimethylpyridin-2-yl)methyl)sulfinyl)-5-fluoro-1H-benzimidazole sodium salt], the inhibition in vivo at 0.8 mg/kg reads like this: under setting [1], 74%; under setting [2], 84%.

As for `[O-][S+](Cc1cc(OCC2COC3(CCC3)OC2)ccn1)c1nc2ccccc2[nH]1` (stereo not shown) [Example 57, 2-(((4-(5,9-dioxaspiro[3.5]non-7-ylmethoxy)pyridin-2-yl)methyl)sulfinyl)-1H-benzimidazole sodium salt], the inhibition in vivo at 0.8 mg/kg reads like this: under setting [1], 83%; under setting [2], 98%.

On to `[O-][S+](Cc1cc(OCC2COC3(CCCC3)OC2)ccn1)c1nc2ccccc2[nH]1` (stereo not shown) [Example 58, 2-(((4-(6,10-dioxaspiro[4.5]dec-8-ylmethoxy)pyridin-2-yl)methyl)sulfinyl)-1H-benzimidazole sodium salt], for which the inhibition in vivo at 0.8 mg/kg was found to be 77% under setting [1] and 95% under setting [2].

Consider `[O-][S+](Cc1cc(OCC2COC(CF)(CF)OC2)ccn1)c1nc2ccccc2[nH]1` (stereo not shown) [Example 59, 2-(((4-((2,2-bis(fluoromethyl)-1,3-dioxan-5-yl)methoxy)pyridin-2-yl)methyl)sulfinyl)-1H-benzimidazole sodium salt], for which the inhibition in vivo at 0.8 mg/kg came out at 77% under setting [1] and 89% under setting [2].

Turning to `[O-][S+](Cc1cc(OCC2COC3(CCOCC3)OC2)ccn1)c1nc2ccccc2[nH]1` (stereo not shown) [Example 60, 2-(((4-(1,5,9-trioxaspiro[5.5]undec-3-ylmethoxy)pyridin-2-yl)methyl)sulfinyl)-1H-benzimidazole sodium salt], the inhibition in vivo at 0.8 mg/kg came to 74% under setting [1] and 89% under setting [2].

Regarding `Cc1c(OCC2COc3ccccc3O2)ccnc1C[S+]([O-])c1nc2ccccc2[nH]1` (stereo not shown) [Example 61, 2-(((4-(2,3-dihydro-1,4-benzodioxin-2-ylmethoxy)-3-methylpyridin-2-yl)methyl)sulfinyl)-1H-benzimidazole sodium salt], the inhibition in vivo at 1.6 mg/kg under setting [1] came out at 90% and the inhibition in vivo at 1.6 mg/kg under setting [2] came out at 100%.

As to `Cc1c(OCCC2COC(C)(C)O2)ccnc1C[S+]([O-])c1nc2ccccc2[nH]1` (stereo not shown) [Example 64, 2-(((4-(2-(2,2-dimethyl-1,3-dioxolan-4-yl)ethoxy)-3-methylpyridin-2-yl)methyl)sulfinyl)-1H-benzimidazole sodium salt], the inhibition in vivo at 0.8 mg/kg runs as follows: under setting [1], 78%; under setting [2], 100%.

As to `CCC1(CC)OCC(COc2ccnc(C[S+]([O-])c3nc4ccccc4[nH]3)c2C)O1` (stereo not shown) [Example 65, 2-(((4-((2,2-diethyl-1,3-dioxolan-4-yl)methoxy)-3-methylpyridin-2-yl)methyl)sulfinyl)-1H-benzimidazole sodium salt], the inhibition in vivo at 1.6 mg/kg runs as follows: under setting [1], 91%; under setting [2], 100%.

Regarding `Cc1c(OCC2OCCO2)ccnc1C[S+]([O-])c1nc2ccccc2[nH]1` (stereo not shown) [Example 66, 2-(((4-(1,3-dioxolan-2-ylmethoxy)-3-methylpyridin-2-yl)methyl)sulfinyl)-1H-benzimidazole sodium salt], the inhibition in vivo at 1.6 mg/kg stood at 79% under setting [1] and 100% under setting [2].

Turning to `Cc1c(OCC2(C)OCCO2)ccnc1C[S+]([O-])c1nc2ccccc2[nH]1` (stereo not shown) [Example 67, 2-(((3-methyl-4-((2-methyl-1,3-dioxolan-2-yl)methoxy)pyridin-2-yl)methyl)sulfinyl)-1H-benzimidazole sodium salt], the inhibition in vivo at 1.6 mg/kg runs as follows: under setting [1], 83%; under setting [2], 100%.

With `Cc1c(OCCC2(C)OCCO2)ccnc1C[S+]([O-])c1nc2ccccc2[nH]1` (stereo not shown) [Example 69, 2-(((3-methyl-4-(2-(2-methyl-1,3-dioxolan-2-yl)ethoxy)pyridin-2-yl)methyl)sulfinyl)-1H-benzimidazole sodium salt], the inhibition in vivo at 1.6 mg/kg by setting is: under setting [1], 78%; under setting [2], 100%.

Take `Cc1c(OCC2(C)OCCO2)ccnc1C[S+]([O-])c1nc2ccccc2[nH]1` (stereo not drawn) [Example 70, Sodium salt of an optical isomer of 2-(((3-methyl-4-((2-methyl-1,3-dioxolan-2-yl)methoxy)pyridin-2-yl)methyl)sulfinyl)-1H-benzimidazole]: the inhibition in vivo at 1.6 mg/kg is, setting by setting: (i.d., 24 h, dose 1.6 mg/kg i.d., second day, 24 hours after administration, histamine i.v., read-out: Persistency of inhibitory effect against gastric acid secretion (%)) 77%; (i.d., dose 1.6 mg/kg i.d., first day, 1 h 40 min to 2 h after administration, histamine i.v., read-out: Inhibitory effect against gastric acid secretion (%)) 100%.

In the case of `Cc1c(OCCC2(C)OCC3(CO2)OCCO3)ccnc1C[S+]([O-])c1nc2ccccc2[nH]1` (stereo not shown) [Example 73, 2-(((3-methyl-4-(2-(8-methyl-1,4,7,9-tetraoxaspiro[4.5]dec-8-yl)ethoxy)pyridin-2-yl)methyl)sulfinyl)-1H-benzimidazole sodium salt], the inhibition in vivo at 0.8 mg/kg stood at 94% under setting [1] and 100% under setting [2].

As for `CC1(CCOc2ccnc(C[S+]([O-])c3nc4ccccc4[nH]3)c2)OCC2(CO1)OCCO2` (stereo not shown) [Example 75, 2-(((4-(2-(8-methyl-1,4,7,9-tetraoxaspiro[4.5]dec-8-yl)ethoxy)pyridin-2-yl)methyl)sulfinyl)-1H-benzimidazole sodium salt], the inhibition in vivo at 0.8 mg/kg was 75% under setting [1] and 85% under setting [2].

With `Cc1c(OC2CCC3(CC2)OCC(C)(C)CO3)ccnc1C[S+]([O-])c1nc2ccccc2[nH]1` (stereo not shown) [Example 81, 2-(((4-((3,3-dimethyl-1,5-dioxaspiro[5.5]undec-9-yl)oxy)-3-methylpyridin-2-yl)methyl)sulfinyl)-1H-benzimidazole sodium salt], the inhibition in vivo at 0.8 mg/kg reads like this: under setting [1], 70%; under setting [2], 96%.

For the compound `[O-][S+](Cc1cc(OC2COC3(CCC3)OC2)ccn1)c1nc2ccccc2[nH]1` (stereo not shown) [Example 83, 2-(((4-(5,9-dioxaspiro[3.5]non-7-yloxy)pyridin-2-yl)methyl)sulfinyl)-1H-benzimidazole sodium salt], the inhibition in vivo at 0.8 mg/kg is 94% under setting [1] and 71% under setting [2].

On to `Cc1c(OCC2OCC3(CCC3)CO2)ccnc1C[S+]([O-])c1nc2ccccc2[nH]1` (stereo not shown) [Example 85, 2-(((4-(6,8-dioxaspiro[3.5]non-7-ylmethoxy)-3-methylpyridin-2-yl)methyl)sulfinyl)-1H-benzimidazole sodium salt], for which the inhibition in vivo at 0.8 mg/kg under setting [1] was determined as 86% and the inhibition in vivo at 0.8 mg/kg under setting [2] turned out to be 100%.

`Cc1c(OCCC2OCC(C)(C)CO2)ccnc1C[S+]([O-])c1nc2ccccc2[nH]1` (stereo not shown) [Example 86, 2-(((4-(2-(5,5-dimethyl-1,3-dioxan-2-yl)ethoxy)-3-methylpyridin-2-yl)methyl)sulfinyl)-1H-benzimidazole sodium salt]: the inhibition in vivo at 0.8 mg/kg was 75% under setting [1] and 100% under setting [2].

For the compound `Cc1c(OCC2COCO2)ccnc1C[S+]([O-])c1nc2ccccc2[nH]1` (stereo not shown) [Example 87, 2-(((4-(1,3-dioxolan-4-ylmethoxy)-3-methylpyridin-2-yl)methyl)sulfinyl)-1H-benzimidazole sodium salt], the inhibition in vivo at 0.8 mg/kg came out at 92% under setting [1] and 100% under setting [2].
